Assay results as given in patent US9433622B2, “Pyrimidine compounds useful in the treatment of diseases mediated by IKKE and/or TBK1 mechanisms” (DOMAINEX LIMITED, priority 2013, dated 2016).

Assays:
[1] = target: IKKε (Homo sapiens (Human), UniProt Q14164); assay: Lanthascreen TR-FRET kinase inhibition assay, IKKε; assay type: biochemical; settings: 20 μM ATP (apparent Km), 2 nM kinase, 1 h
In short: (§1)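 TR-FRET: terbium phosphospecific antibody detects phosphorylation of 400 nM fluorescein-IkBα peptide, 20 μM ATP, 20 °C, HEPES pH 7.5 with 3% DMSO. IKKε at 2 nM, 1 h reaction; TBK1 at 8 nM, 2.5 h reaction; started by kinase addition.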

[2] = target: TBK1 (Homo sapiens (Human), UniProt Q9UHD2); assay: Lanthascreen TR-FRET kinase inhibition assay, TBK1; assay type: biochemical; settings: 20 μM ATP (apparent Km), 8 nM kinase, 2.5 h
Sequence of TBK1 (Q9UHD2 whole entry): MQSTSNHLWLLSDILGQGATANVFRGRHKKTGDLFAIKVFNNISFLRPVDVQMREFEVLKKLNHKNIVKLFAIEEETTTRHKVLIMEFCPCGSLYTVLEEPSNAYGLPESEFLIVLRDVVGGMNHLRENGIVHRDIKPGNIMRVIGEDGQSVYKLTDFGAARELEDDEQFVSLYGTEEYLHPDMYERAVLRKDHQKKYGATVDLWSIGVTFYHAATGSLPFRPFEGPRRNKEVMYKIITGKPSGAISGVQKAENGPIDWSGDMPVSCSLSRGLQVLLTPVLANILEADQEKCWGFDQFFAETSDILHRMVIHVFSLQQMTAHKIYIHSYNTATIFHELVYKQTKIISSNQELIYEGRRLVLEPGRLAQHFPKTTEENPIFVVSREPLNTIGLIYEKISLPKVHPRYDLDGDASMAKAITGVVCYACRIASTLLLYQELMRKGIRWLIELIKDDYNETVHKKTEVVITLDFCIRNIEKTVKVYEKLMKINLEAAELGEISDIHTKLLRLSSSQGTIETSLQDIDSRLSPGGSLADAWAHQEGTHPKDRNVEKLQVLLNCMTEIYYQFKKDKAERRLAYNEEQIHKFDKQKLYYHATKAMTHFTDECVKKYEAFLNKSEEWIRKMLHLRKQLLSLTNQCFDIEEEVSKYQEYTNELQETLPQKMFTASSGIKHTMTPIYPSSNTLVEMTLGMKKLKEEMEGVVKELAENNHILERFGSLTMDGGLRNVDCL
In short: as §1

Sequence of IKKε (Q14164 whole entry): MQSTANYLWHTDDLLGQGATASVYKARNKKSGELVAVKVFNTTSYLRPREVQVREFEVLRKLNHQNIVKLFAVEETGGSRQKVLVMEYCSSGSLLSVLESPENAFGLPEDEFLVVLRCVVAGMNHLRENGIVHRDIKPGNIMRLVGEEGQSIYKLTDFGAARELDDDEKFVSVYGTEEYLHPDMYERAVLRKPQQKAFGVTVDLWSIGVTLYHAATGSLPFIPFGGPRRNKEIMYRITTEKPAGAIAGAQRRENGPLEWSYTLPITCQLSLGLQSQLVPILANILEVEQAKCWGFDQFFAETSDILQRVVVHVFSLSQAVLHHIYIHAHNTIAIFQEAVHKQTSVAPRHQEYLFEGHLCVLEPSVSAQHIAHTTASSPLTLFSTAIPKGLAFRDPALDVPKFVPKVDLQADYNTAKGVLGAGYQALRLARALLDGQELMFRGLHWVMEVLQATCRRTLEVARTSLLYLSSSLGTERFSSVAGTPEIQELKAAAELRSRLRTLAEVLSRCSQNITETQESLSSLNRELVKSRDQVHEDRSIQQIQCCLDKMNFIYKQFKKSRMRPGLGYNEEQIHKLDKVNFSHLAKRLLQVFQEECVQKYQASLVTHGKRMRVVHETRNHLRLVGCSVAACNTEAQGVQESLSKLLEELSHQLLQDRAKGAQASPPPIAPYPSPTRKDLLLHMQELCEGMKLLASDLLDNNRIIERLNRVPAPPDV

| SMILES | IC50 [1] | IC50 [2] |
| --- | --- | --- |
| Cn1cc(Nc2nccc(-c3cnc(N4C5CCC4COC5)c(C#N)c3)n2)cn1 [DMX-45, 5-[2-(1-Methyl-1H-pyrazol-4-ylamino)-pyrimidin-4-yl]-2-(3-oxa-8-aza-bicyclo[3.2.1]oct-8-yl)-nicotinonitrile] | < 100 nM | < 100 nM |
| CC(NCc1ccccc1)C(=O)Nc1ccc(Nc2nccc(-c3cnc(N4CC[C@H](F)C4)c(C#N)c3)n2)cn1 (stereo partly drawn) [DMX-55, 2-Benzylamino-N-(5-{4-[5-cyano-6-((S)-3-fluoro-pyrrolidin-1-yl)-pyridin-3-yl]-pyrimidin-2-ylamino}-pyridin-2-yl)-propionamide] | < 100 nM | < 30 nM |
| N#Cc1cc(-c2ccnc(Nc3ccc(N4CCOCC4)cc3)n2)cnc1N1CCCC1 [DMX-5, 5-[2-(4-Morpholin-4-yl-phenylamino)-pyrimidin-4-yl]-2-pyrrolidin-1-yl-nicotinonitrile] | < 30 nM | < 15 nM |
| N#Cc1cc(-c2ccnc(Nc3ccc(N4CCNCC4)nc3)n2)cnc1N1CC[C@H](F)C1 [DMX-25, 2-((S)-3-Fluoro-pyrrolidin-1-yl)-5-[2-(6-piperazin-1-yl-pyridin-3-ylamino)-pyrimidin-4-yl]-nicotinonitrile] | < 15 nM | < 30 nM |
| CN(CC1CCOC1)c1ncc(-c2ccnc(Nc3ccc(CN4CCOCC4)nc3)n2)cc1C#N (stereo not drawn) [DMX-137, 2-[Methyl-(tetrahydro-furan-3-ylmethyl)-amino]-5-[2-(6-morpholin-4-ylmethyl-pyridin-3-ylamino)-pyrimidin-4-yl]-nicotinonitrile] | < 1000 nM | < 1000 nM |
| COCCN(C)CC(=O)Nc1ccc(Nc2nccc(-c3cnc(N4CC[C@H](F)C4)c(C#N)c3)n2)cn1 [DMX-21, N-(5-{4-[5-Cyano-6-((S)-3-fluoro-pyrrolidin-1-yl)-pyridin-3-yl]-pyrimidin-2-ylamino}-pyridin-2-yl)-2-[(2-methoxy-ethyl)-methyl-amino]-acetamide] | < 30 nM | < 30 nM |
| CC(N)C(=O)Nc1ccc(Nc2nccc(-c3cnc(N4CC[C@H](F)C4)c(C#N)c3)n2)cn1 (stereo partly drawn) [DMX-56, 2-Amino-N-(5-{4-[5-cyano-6-((S)-3-fluoro-pyrrolidin-1-yl)-pyridin-3-yl]-pyrimidin-2-ylamino)-pyridin-2-yl)-propionamide] | < 30 nM | < 100 nM |
| N#Cc1cc(-c2ccnc(Nc3ccnc(N4CCOCC4)c3)n2)cnc1N1CC[C@H](F)C1 [DMX-61, 2-((S)-3-Fluoro-pyrrolidin-1-yl)-5-[2-(2-morpholin-4-yl-pyridin-4-ylamino)-pyrimidin-4-yl]-nicotinonitrile] | < 15 nM | < 15 nM |
| N#Cc1cc(-c2ccnc(Nc3cccc(C(=O)NC4CCNCC4)c3)n2)cnc1N1CC[C@H](F)C1 [DMX-11, 3-{4-[5-Cyano-6-((S)-3-fluoro-pyrrolidin-1-yl)-pyridin-3-yl]-pyrimidin-2-ylamino}-N-piperidin-4-yl-benzamide] | < 30 nM | < 30 nM |
| N#Cc1cc(-c2nc(Nc3ccnc(NC(=O)CN4CCOCC4)c3)ncc2F)cnc1NC1CC1 [DMX-124, N-{4-[4-(5-Cyano-6-cyclopropylamino-pyridin-3-yl)-5-fluoro-pyrimidin-2-ylamino]-pyridin-2-yl}-2-morpholin-4-yl-acetamide] | < 1000 nM | < 100 nM |
| COCCNc1cc(Nc2nccc(-c3cnc(N4CC[C@H](F)C4)c(C#N)c3)n2)ccn1 [DMX-72, 2-((S)-3-Fluoro-pyrrolidin-1-yl)-5-{2-[2-(2-methoxy-ethylamino)-pyridin-4-ylamino]-pyrimidin-4-yl}-nicotinonitrile] | < 30 nM | < 15 nM |
| CC1CN(c2ncc(-c3ccnc(Nc4ccc(CN5CCOCC5)nc4)n3)cc2C#N)CCO1 (stereo not drawn) [DMX-159, 2-(2-Methyl-morpholin-4-yl)-5-[2-(6-morpholin-4-ylmethyl-pyridin-3-ylamino)-pyrimidin-4-yl]-nicotinonitrile] | < 1000 nM | < 1000 nM |
| COCCNCc1cncc(Nc2nccc(-c3cnc(N4CC[C@H](F)C4)c(C#N)c3)n2)c1 [DMX-106, 2-((S)-3-Fluoro-pyrrolidin-1-yl)-5-(2-{5-[(2-methoxy-ethylamino)-methyl]-pyridin-3-ylamino}-pyrimidin-4-yl)-nicotinonitrile] | < 100 nM | < 100 nM |
| N#Cc1cc(-c2ccnc(Nc3ccc(OCCN4CC[C@H](F)C4)nc3)n2)cnc1N1CC[C@H](F)C1 [DMX-70, 2-((S)-3-Fluoro-pyrrolidin-1-yl)-5-(2-{6-[2-((S)-3-fluoro-pyrrolidin-1-yl)-ethoxy]-pyridin-3-ylamino}-pyrimidin-4-yl)-nicotinonitrile] | < 100 nM | < 100 nM |
| N#Cc1cc(-c2ccnc(Nc3ccc(CN4CCOCC4)nc3)n2)cnc1NC1CC1 [DMX-122, 2-Cyclopropylamino-5-[2-(6-morpholin-4-ylmethyl-pyridin-3-ylamino)-pyrimidin-4-yl]-nicotinonitrile] | < 1000 nM | < 100 nM |
| N#Cc1cc(-c2nc(Nc3ccc(CN4CCOCC4)nc3)ncc2F)cnc1N1CC[C@H](F)C1 [DMX-89, 5-[5-Fluoro-2-(6-morpholin-4-ylmethyl-pyridin-3-ylamino)-pyrimidin-4-yl]-2-((S)-3-fluoro-pyrrolidin-1-yl)-nicotinonitrile] | < 30 nM | < 15 nM |
| CC(C(N)=O)N(C)c1ncc(-c2ccnc(Nc3ccc(CN4CCOCC4)nc3)n2)cc1C#N (stereo not drawn) [DMX-135, 2-({3-Cyano-5-[2-(6-morpholin-4-ylmethyl-pyridin-3-ylamino)-pyrimidin-4-yl]-pyridin-2-yl}-methyl-amino)-propionamide] | < 100 nM | < 100 nM |
| N#Cc1cc(-c2ccnc(Nc3ccc(NC(=O)CN4CCOCC4)nc3)n2)cnc1N1CCCOCC1 [DMX-85, N-{5-[4-(5-Cyano-6-[1,4]oxazepan-4-yl-pyridin-3-yl)-pyrimidin-2-ylamino]-pyridin-2-yl}-2-morpholin-4-yl-acetamide] | < 100 nM | < 100 nM |
| CN1Cc2ccc(Nc3nccc(-c4cnc(N5CC[C@H](F)C5)c(C#N)c4)n3)cc2C1 [DMX-76, 2-((S)-3-Fluoro-pyrrolidin-1-yl)-5-[2-(2-methyl-2,3-dihydro-1H-isoindol-5-ylamino)-pyrimidin-4-yl]-nicotinonitrile] | < 15 nM | < 15 nM |
| N#Cc1cc(-c2ccnc(Nc3ccc(CN4CCOCC4)nc3)n2)cnc1N1CCC2(COC2)C1 [DMX-92, 5-[2-(6-Morpholin-4-ylmethyl-pyridin-3-ylamino)-pyrimidin-4-yl]-2-(2-oxa-6-aza-spiro[3.4]oct-6-yl)-nicotinonitrile] | < 30 nM | < 100 nM |
| N#Cc1cc(-c2ccnc(Nc3ccnc(NC(=O)CN4CCOCC4)c3)n2)cnc1N1CC[C@H](F)C1 [DMX-34, N-(4-{4-[5-Cyano-6-((S)-3-fluoro-pyrrolidin-1-yl)-pyridin-3-yl]-pyrimidin-2-ylamino}-pyridin-2-yl)-2-morpholin-4-yl-acetamide] | < 30 nM | < 30 nM |
| N#Cc1cc(-c2ccnc(Nc3cnn(C4CCOCC4)c3)n2)cnc1N1CC[C@H](F)C1 [DMX-33, 2-((S)-3-Fluoro-pyrrolidin-1-yl)-5-{2-[1-(tetrahydro-pyran-4-yl)-1H-pyrazol-4-ylamino]-pyrimidin-4-yl}-nicotinonitrile] | < 15 nM | < 15 nM |
| N#Cc1cc(-c2ccnc(Nc3ccc(NC(=O)C4CC4)nc3)n2)cnc1N1CC[C@H](F)C1 [DMX-19, Cyclopropanecarboxylic acid (5-{4-[5-cyano-6-((S)-3-fluoro-pyrrolidin-1-yl)-pyridin-3-yl]-pyrimidin-2-ylamino}-pyridin-2-yl)-amide] | < 100 nM | < 100 nM |
| N#Cc1cc(-c2ccnc(Nc3ccnc(N4CCOCC4)c3)n2)cnc1N1CC[C@H](O)C1 [DMX-71, 2-((S)-3-Hydroxy-pyrrolidin 1-yl)-5-[2-(2-morpholin-4-yl-pyridin-4-ylamino)-pyrimidin-4-yl]-nicotinonitrile] | < 30 nM | < 30 nM |
| COCCNc1cc(Nc2ncc(F)c(-c3cnc(NC4CC4)c(C#N)c3)n2)ccn1 [DMX-125, 2-Cyclopropylamino-5-{5-fluoro-2-[2-(2-methoxy-ethylamino)-pyridin-4-ylamino]-pyrimidin-4-yl}-nicotinonitrile] | < 1000 nM | < 100 nM |
| CN1CCN(c2ccc(Nc3nccc(-c4cnc(N5CCCC5)c(C#N)c4)n3)cn2)CC1 [DMX-3, 5-{2-[6-(4-Methyl-piperazin-1-yl)-pyridin-3-ylamino]-pyrimidin-4-yl}-2-pyrrolidin-1-yl-nicotinonitrile] | < 15 nM | < 15 nM |
| N#Cc1cc(-c2ccnc(Nc3ccc(CN4CCOCC4)nc3)n2)cnc1N1CCC(CC(N)=O)C1 (stereo not drawn) [DMX-158, 2-(1-{3-Cyano-5-[2-(6-morpholin-4-ylmethyl-pyridin-3-ylamino)-pyrimidin-4-yl]-pyridin-2-yl}-pyrrolidin-3-yl)-acetamide] | < 100 nM | < 100 nM |
| CC(C)(N)C(=O)Nc1ccc(Nc2nccc(-c3cnc(N4CC[C@H](F)C4)c(C#N)c3)n2)cn1 [DMX-62, 2-Amino-N-(5-{4-[5-cyano-6-((S)-3-fluoro-pyrrolidin-1-yl)-pyridin-3-yl]-pyrimidin-2-ylamino}-pyridin-2-yl)-2-methyl-propionamide] | < 30 nM | < 100 nM |
| N#Cc1nc(-c2ccnc(Nc3ccc(NC(=O)CN4CCOCC4)nc3)n2)ccc1N1CC[C@H](O)C1 [DMX-141, N-(5-{4-[6-Cyano-5-((S)-3-hydroxy-pyrrolidin-1-yl)-pyridin-2-yl]-pyrimidin-2-ylamino}-pyridin-2-yl)-2-morpholin-4-yl-acetamide] | < 100 nM | < 100 nM |
| N#Cc1cc(-c2ccnc(Nc3cccc(=O)[nH]3)n2)cnc1N1CC[C@H](F)C1 [DMX-73, 2-((S)-3-Fluoro-pyrrolidin-1-yl)-5-[2-(6-oxo-1,6-dihydro-pyridin-2-ylamino)-pyrimidin-4-yl]-nicotinonitrile] | < 1000 nM | < 1000 nM |
